{"source": "patent US11739053B2", "about": "“P62-ZZ chemical inhibitor” (ID4PHARMA, LLC, priority 2011, dated 2023)", "system": "phospho-PKCζ", "assay": "TNF-α induced PKCζ phosphorylation in MM1.S cells", "format": "cell-based, human", "conditions": "pre-treated 3 hours", "description": "Compound 3 was tested for its capacity to block MM-stimulated signaling in marrow stromal cells, thereby resulting in less bone destruction and MM growth. The effects of the compound 3 on GFP-labeled MM1.S myeloma cell growth with/without stromal cells, IL-6 and VCAM-1 expression on stromal cells induced by TNF-α and OCL formation, and TNF-α induced PKCζ phosphorylation, the specific kinase enzyme activated p62-ZZ, were examined. GFP-labeled MM1.S myeloma cells or normal human CFU-GM, a source of OCL precursors, were then co-cultured with human stromal cells with the p62-ZZ inhibitor. […] VCAM-1 expression and IL-6 production induced by TNF-α on stromal cells was blocked by 30% and 90% respectively compared to vehicle levels. Furthermore, TNF-α induced PKC, phosphorylation blocked was in stromal cells and MM1.S when pre-treated with this p62-ZZ inhibitory compound for 3 hours."}
{"smiles": "OCCNCc1ccc(OCc2ccccc2)c(OCc2ccccc2)c1", "note": "[Compound 3, 2-[[3,4-bis(phenylmethoxy)phenyl]methylamino]ethanol]", "values": [{"measurement": "TNF-α induced PKCζ phosphorylation in MM1.S", "result": "blocked"}]}
